Consider 38 molecules from patent publication EP4714952A1, “COMPOUND AND USE THEREOF” (Autobio Group Co., Ltd., priority 2023, dated 2025).

Structures can show the parent of a compound that is named as a salt. Where two headings read alike, the source gives them in different places.

One assay addresses T1, PDE3A (Homo sapiens, UniProt Q14432).
T1 construct: purchased BPS
The assay can be described thus: In vitro inhibitory effect on PDE3A enzyme (AMP-Glo assay). In kind it is biochemical. As to the method: (§1) 1. Table 1 Main reagents and consumables for in vitro detection of inhibitory effect
(§2) 2. Preparation of experimental buffers Reaction buffer (5×): 50 mM Tris-HCl (buffer), 50 mM MgCl2, 0.5% BSA, 0.25% Tween-20, pH 7.4, stored at -20°C. 3. […] The starting concentration of the reference substance serial dilution was the Low control, and 1% DMSO-reaction buffer served as the High control. • 3) The enzyme was diluted to the desired concentration with 1× reaction buffer, and 4 µL of the diluted solution was transferred to the assay plate. After centrifugation, the 384-well low dead-volume microplate was sealed with sealing film and incubated in the incubator at 23°C for 15 minutes. • 4) The substrate cAMP was diluted to the desired concentration using 1× reaction buffer, and 5 µL of the diluted solution was transferred to the assay plate. After centrifugation, the plate was sealed again and incubated in the incubator at 23°C for 60 minutes (PDE3A) or 10 minutes (PDE4B1). • 5) Then, 5 µL of Reagent I from the AMP-Glo™ Assay Kit was added to the assay plate. After centrifugation and sealing, the plate was incubated in the incubator at 23°C for 60 minutes. • 6) The detection solution was prepared according to the AMP-Glo™ Assay Kit instructions, and 10 µL of the detection solution was added to the assay plate. After centrifugation and sealing, the plate was incubated in the incubator at 23°C for 60 minutes. • 7) The readout was recorded using a multimode microplate reader. 4. […] 5.

Another assay addresses T2, PDE4B1 (Homo sapiens, UniProt Q07343).
T2 construct: purchased Sigma
The assay can be described thus: In vitro inhibitory effect on PDE4B1 enzyme (AMP-Glo assay). The class given is biochemical. As to the method:
as §1, §2

Where [1] appears, read: AMP-Glo Assay Kit, substrate cAMP, 23°C, 60 minutes, read-out: PDE3A (IC50).
Where [2] appears, read: AMP-Glo Assay Kit, substrate cAMP, 23°C, 10 minutes, read-out: PDE4B1 (IC50).

T1 sequence (Q14432 whole entry): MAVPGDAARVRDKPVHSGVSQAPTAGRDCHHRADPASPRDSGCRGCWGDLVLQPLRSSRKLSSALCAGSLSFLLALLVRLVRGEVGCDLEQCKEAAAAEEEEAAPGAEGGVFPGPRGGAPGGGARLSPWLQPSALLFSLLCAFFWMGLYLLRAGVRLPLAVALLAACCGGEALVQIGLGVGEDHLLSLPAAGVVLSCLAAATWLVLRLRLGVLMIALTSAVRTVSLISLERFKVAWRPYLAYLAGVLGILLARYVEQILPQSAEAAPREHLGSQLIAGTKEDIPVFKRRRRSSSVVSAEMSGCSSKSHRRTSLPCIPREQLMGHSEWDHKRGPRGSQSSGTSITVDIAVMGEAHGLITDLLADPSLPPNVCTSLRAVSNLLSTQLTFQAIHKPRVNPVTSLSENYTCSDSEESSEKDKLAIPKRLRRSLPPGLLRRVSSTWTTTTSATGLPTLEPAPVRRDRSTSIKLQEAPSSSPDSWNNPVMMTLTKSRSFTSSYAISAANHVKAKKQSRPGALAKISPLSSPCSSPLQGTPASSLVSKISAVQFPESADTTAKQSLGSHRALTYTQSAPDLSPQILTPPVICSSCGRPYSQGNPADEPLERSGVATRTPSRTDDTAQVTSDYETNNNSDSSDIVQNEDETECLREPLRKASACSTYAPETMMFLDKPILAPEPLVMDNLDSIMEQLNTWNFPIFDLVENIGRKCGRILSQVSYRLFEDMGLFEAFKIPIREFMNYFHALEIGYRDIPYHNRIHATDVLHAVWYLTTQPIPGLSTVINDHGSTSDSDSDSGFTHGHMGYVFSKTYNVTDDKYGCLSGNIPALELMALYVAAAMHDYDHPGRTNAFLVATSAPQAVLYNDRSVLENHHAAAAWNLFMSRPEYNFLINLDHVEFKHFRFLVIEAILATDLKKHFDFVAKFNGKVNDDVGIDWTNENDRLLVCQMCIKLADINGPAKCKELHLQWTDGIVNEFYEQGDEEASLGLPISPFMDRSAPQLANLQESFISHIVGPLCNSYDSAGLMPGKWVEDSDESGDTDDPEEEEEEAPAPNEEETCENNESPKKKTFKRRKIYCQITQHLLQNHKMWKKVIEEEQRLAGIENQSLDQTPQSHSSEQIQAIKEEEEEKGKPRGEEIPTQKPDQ
T2 sequence (Q07343 whole entry): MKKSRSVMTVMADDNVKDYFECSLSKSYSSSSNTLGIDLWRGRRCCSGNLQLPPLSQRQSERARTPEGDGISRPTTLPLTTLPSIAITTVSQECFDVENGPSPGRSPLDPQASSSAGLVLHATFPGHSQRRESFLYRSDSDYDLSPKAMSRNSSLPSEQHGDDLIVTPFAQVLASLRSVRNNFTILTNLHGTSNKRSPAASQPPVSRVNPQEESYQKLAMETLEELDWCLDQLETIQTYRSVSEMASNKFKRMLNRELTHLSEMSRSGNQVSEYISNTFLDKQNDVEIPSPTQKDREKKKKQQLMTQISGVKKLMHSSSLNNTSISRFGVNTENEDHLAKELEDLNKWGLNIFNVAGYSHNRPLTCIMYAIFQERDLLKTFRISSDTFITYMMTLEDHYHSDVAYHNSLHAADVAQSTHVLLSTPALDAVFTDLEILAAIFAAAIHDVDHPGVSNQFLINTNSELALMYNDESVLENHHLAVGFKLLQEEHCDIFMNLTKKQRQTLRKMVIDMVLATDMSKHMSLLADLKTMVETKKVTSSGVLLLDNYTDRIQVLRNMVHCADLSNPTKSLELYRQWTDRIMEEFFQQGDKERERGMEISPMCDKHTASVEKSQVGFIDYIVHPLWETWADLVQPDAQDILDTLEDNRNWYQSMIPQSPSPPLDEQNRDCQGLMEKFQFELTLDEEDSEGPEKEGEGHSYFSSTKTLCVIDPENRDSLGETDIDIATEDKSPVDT

`CCOc1cc2c(cc1OC)-c1cc(N(CCNC(=O)c3ccno3)c3c(C)cc(C)cc3C)nc(=O)n1CC2` [Compound 62]: the half-inhibitory concentration (IC50) turned out to be 0.055 nM on PDE3A (setting [1]) and 2.6 nM at PDE4B1 (setting [2]).

Consider `COc1cc2c(cc1OC)S(=O)(=O)CCn1c-2cc(=Nc2c(C)cc(C)cc2C)n(CCNC(N)=O)c1=O` [Compound 21], for which the IC50 came to 1000 nM against PDE3A and 6910 nM against PDE4B1.

`COc1cc2c(cc1OC)-c1cc(N(CCC(O)CO)c3c(C)cc(C)cc3C)nc(=O)n1CC2` (stereo not shown) [Compound 6]: the IC50 on PDE3A (setting [1]) was 0.026 nM; at PDE4B1 (setting [2]) it was 121 nM.

`COc1cc2c(cc1OC)C(C)Cn1c-2cc(=Nc2c(C)cc(C)cc2C)n(CCNC(N)=O)c1=O` (stereo not shown) [Compound 9]: the concentration for half-maximal inhibition (IC50) was 5.66 nM against PDE3A and 114 nM against PDE4B1.

For `CCOc1cc2c(cc1OC)-c1cc(=Nc3c(C)cc(C)cc3C)n(CCNC(=O)c3cc[nH]c(=O)c3)c(=O)n1CC2` [Compound 30], the half-inhibitory concentration (IC50) against PDE3A is 3.23 nM; against PDE4B1, 26.3 nM.

On to `COc1cc2c(cc1OC)-c1cc(=Nc3c(C)cc(C)cc3C)n(CCNC(=O)c3cnc4n3CCC4)c(=O)n1CC2` [Compound 36], for which the IC50 worked out at 0.9 nM on PDE3A and 530 nM against PDE4B1.

For `COc1cc2c(cc1OC)-c1c/c(=N\c3c(C)cc(C)cc3C)n(C)c(=O)n1CC2` [Trequinsin Hydrochlorid, Trequinsin hydrochloride, reference compound], the IC50 on PDE3A (setting [1]) was 0.227 nM.

On to `CCOc1cc2c(cc1OC)-c1cc(N(CCN3CCS(=O)(=O)CC3)c3c(C)cc(C)cc3C)nc(=O)n1CC2` [Compound 72], for which the IC50 at PDE3A (setting [1]) came out at 0.074 nM; on PDE4B1 (setting [2]), 5 nM.

As to `COc1cc2c(cc1OC)-c1cc(=Nc3c(C)cc(C)cc3C)n(CCNC(=O)c3cccn(C)c3=O)c(=O)n1CC2` [Compound 39], the 50% inhibitory concentration (IC50) on PDE3A was 0.72 nM; on PDE4B1, 18.7 nM.

Take `COc1cc2c(cc1OC)-c1cc(N(c3c(C)cc(C)cc3C)C3CN(C(=O)c4[nH]nnc4C)C3)nc(=O)n1CC2` [Compound 50]: the IC50 against PDE3A worked out at 0.005 nM; against PDE4B1, 67.4 nM.

For the molecule `COc1cc2c(cc1OC)-c1cc(=Nc3c(C)cc(C)cc3C)n(CCNC(=O)NC3CCNCC3)c(=O)n1CC2` [Compound 67], the IC50 against PDE3A was found to be 5.49 nM; on PDE4B1, 3800 nM.

As for `CCOc1cc2c(cc1OC)-c1cc(N(c3c(C)cc(C)cc3C)C3CC(NC(=O)c4c(O)nnn4C)C3)nc(=O)n1CC2` (stereo not shown) [Compound 31], the IC50 worked out at 0.57 nM on PDE3A and 193 nM against PDE4B1.

For the molecule `CCOc1cc2c(cc1OC)-c1cc(=Nc3c(C)cc(C)cc3C)n(CCC(N)C(F)(F)F)c(=O)n1CC2` (stereo not shown) [Compound 79], the IC50 at PDE3A (setting [1]) stood at 0.33 nM; on PDE4B1 (setting [2]) it was 2860 nM.

As for `COc1cc2c(cc1OC)-c1cc(N(c3c(C)cc(C)cc3C)C3CN(C(N)=O)C3)nc(=O)n1CC2` [Compound 32], the results for the IC50 on PDE3A and against PDE4B1 were 0.21 nM and 238 nM, respectively.

Turning to `COc1cc2c(cc1OC)-c1cc(N(CCNC(=O)N3CCOCC3CO)c3c(C)cc(C)cc3C)nc(=O)n1CC2` (stereo not shown) [Compound 48], the figures for the IC50 on PDE3A and against PDE4B1 were 0.16 nM and 579 nM, respectively.

For the molecule `CCOc1cc2c(cc1OC)-c1cc(=Nc3c(C)cc(C)cc3C)n(CCN3CCS(=O)(=O)CC3)c(=O)n1CC2` [Compound 73], the IC50 stood at 0.53 nM on PDE3A (setting [1]) and 414 nM at PDE4B1 (setting [2]).

`COc1cc2c(cc1OC)-c1cc(N(c3c(C)cc(C)cc3C)C3CN(C(=O)c4nnc[nH]4)C3)nc(=O)n1CC2` [Compound 56]: the IC50 at PDE3A (setting [1]) was 0.82 nM; at PDE4B1 (setting [2]), 8880 nM.

Consider `COc1cc2c(cc1OC)-c1cc(N(CCNC(=O)c3c(O)nnn3C)c3c(C)cc(C)cc3C)nc(=O)n1CC2` [Compound 44], for which the concentration for half-maximal inhibition (IC50) came to 0.081 nM at PDE3A and 223 nM on PDE4B1.

For `CCOc1cc2c(cc1OC)-c1cc(=Nc3c(C)cc(C)cc3C)n(CCNC(=O)c3ccnc(Cl)c3)c(=O)n1CC2` [Compound 29], the IC50 against PDE3A turned out to be 4.78 nM; at PDE4B1 it was 423 nM.

In the case of `COc1cc2c(cc1OCc1ccccc1)CCn1c-2cc(=Nc2c(C)cc(C)cc2C)n(CCNC(N)=O)c1=O` [Compound 24], on PDE3A (setting [1]), the half-inhibitory concentration (IC50) came to 1010 nM.

With `COc1cc2c(cc1OC)-c1cc(N(CCC#N)c3c(C)cc(C)cc3C)nc(=O)n1CC2` [Compound 1], the IC50 was found to be 0.11 nM on PDE3A and 298 nM against PDE4B1.

As to `COc1cc2c(cc1OC)-c1cc(N(c3c(C)cc(C)cc3C)C3CCN(C(=O)c4c(O)nnn4C)C3)nc(=O)n1CC2` (stereo not shown) [Compound 35], the IC50 against PDE3A stood at 0.56 nM; against PDE4B1 it was 1280 nM.

`CCOc1cc2c(cc1OC)-c1cc(N(CCN)c3c(C)cc(C)cc3C)nc(=O)n1CC2` [Compound 42]: the results for the half-maximal inhibitory concentration (IC50) on PDE3A and against PDE4B1 were 0.62 nM and 75.3 nM, respectively.

`CCn1cccc(C(=O)NCCn2c(=Nc3c(C)cc(C)cc3C)cc3n(c2=O)CCc2cc(OC)c(OC)cc2-3)c1=O` [Compound 40]: the results for the IC50 against PDE3A and on PDE4B1 were 1.29 nM and 82.1 nM, respectively.

As to `COc1cc2c(cc1OCC1CC1)CCn1c-2cc(=Nc2c(C)cc(C)cc2C)n(CCNC(=O)c2c(O)nnn2C)c1=O` [Compound 27], the IC50 on PDE3A (setting [1]) came out at 2.16 nM; at PDE4B1 (setting [2]), 918 nM.

For the molecule `CCOc1cc2c(cc1OC)-c1cc(=Nc3c(C)cc(C)cc3C)n(CCNC(=O)c3ccnn(C)c3=O)c(=O)n1CC2` [Compound 59], the IC50 on PDE3A is 0.76 nM; against PDE4B1, 27.6 nM.

`COc1cc2c(cc1OC)-c1cc(=Nc3c(C)cc(C)cc3C)n(CCC(O)CO)c(=O)n1CC2` (stereo not shown) [Compound 5]: the values for the IC50 at PDE3A (setting [1]) and on PDE4B1 (setting [2]) were 0.1 nM and 974 nM, respectively.

In the case of `COc1cc2c(cc1OC)-c1cc(=Nc3c(C)cc(C)cc3C)n(CCN3CCn4c(nnc4C(F)(F)F)C3)c(=O)n1CC2` [Compound 34], the IC50 on PDE3A turned out to be 6.4 nM.

Consider `CCOc1cc2c(cc1OC)-c1cc(=Nc3c(C)cc(C)cc3C)n(CCNC(=O)NOC)c(=O)n1CC2` [Compound 85], for which the IC50 was determined as 0.31 nM at PDE3A and 40.5 nM against PDE4B1.

With `CCOc1cc2c(cc1OC)-c1cc(N(c3c(C)cc(C)cc3C)C3CN(C(=O)c4[nH]nnc4C)C3)nc(=O)n1CC2` [Compound 77], the IC50 at PDE3A (setting [1]) amounted to 24.7 nM; on PDE4B1 (setting [2]) it was 6730 nM.

In the case of `COc1cc2c(cc1OC)-c1cc(=Nc3c(C)cc(C)cc3C)n(CCNC(=O)N3Cc4cn(C5CC5)nc4C3)c(=O)n1CC2` [Compound 68], the IC50 was found to be 1.82 nM against PDE3A and 334 nM on PDE4B1.

Take `CCOc1cc2c(cc1OC)-c1cc(N(CCC(N)C(F)(F)F)c3c(C)cc(C)cc3C)nc(=O)n1CC2` (stereo not shown) [Compound 78]: the values for the IC50 at PDE3A (setting [1]) and on PDE4B1 (setting [2]) were 0.027 nM and 8.9 nM, respectively.

`Cc1cc(C)c(N=c2cc3n(c(=O)n2CCNC(N)=O)CCc2cc4c(cc2-3)OCCO4)c(C)c1` [Compound 13]: on PDE3A, the concentration for half-maximal inhibition (IC50) stood at 44.6 nM.

Take `CNCCn1c(=Nc2c(C)cc(C)cc2C)cc2n(c1=O)CCc1cc(OC)c(OC)cc1-2` [Compound 16]: the IC50 on PDE3A (setting [1]) stood at 6.63 nM.

`Cc1cc(C)c(N=c2cc3n(c(=O)n2CCNC(N)=O)CCc2cc4c(cc2-3)OCO4)c(C)c1` [Compound 11] returned an IC50 against PDE3A of 117 nM.

In the case of `COc1cc2c(cc1OC)-c1cc(N(c3c(C)cc(C)cc3C)C3CN(C(=O)c4c(O)nnn4C)C3)nc(=O)n1CC2` [Compound 47], the IC50 on PDE3A (setting [1]) came to 72.3 nM.

The molecule `COc1cc2c(cc1OC1CCN(C)C1)CCn1c-2cc(=Nc2c(C)cc(C)cc2C)n(CCNC(N)=O)c1=O` (stereo not shown) [Compound 37] returned a half-inhibitory concentration (IC50) on PDE3A of 60.1 nM.

As for `COc1cc2c(cc1OC)-c1cc(N(c3c(C)cc(C)cc3C)C3CN(C(=O)c4cnc[nH]4)C3)nc(=O)n1CC2` [Compound 49], on PDE3A (setting [1]), the IC50 stood at 325 nM.
